{
  "source": "paper PMC10997755",
  "about": "“Discovery of a small-molecule inhibitor that traps Polθ on DNA and synergizes with PARP inhibitors” (Nature Communications, 2024)",
  "key": {"Polθ-pol": {"target": "T1, Polθ-pol (Homo sapiens, UniProt O75417)", "T1 construct": "purified recombinant human Polθ-pol (comprising amino acid residues 1792–2590); made in house", "T1 sequence (O75417 1792-2590)": "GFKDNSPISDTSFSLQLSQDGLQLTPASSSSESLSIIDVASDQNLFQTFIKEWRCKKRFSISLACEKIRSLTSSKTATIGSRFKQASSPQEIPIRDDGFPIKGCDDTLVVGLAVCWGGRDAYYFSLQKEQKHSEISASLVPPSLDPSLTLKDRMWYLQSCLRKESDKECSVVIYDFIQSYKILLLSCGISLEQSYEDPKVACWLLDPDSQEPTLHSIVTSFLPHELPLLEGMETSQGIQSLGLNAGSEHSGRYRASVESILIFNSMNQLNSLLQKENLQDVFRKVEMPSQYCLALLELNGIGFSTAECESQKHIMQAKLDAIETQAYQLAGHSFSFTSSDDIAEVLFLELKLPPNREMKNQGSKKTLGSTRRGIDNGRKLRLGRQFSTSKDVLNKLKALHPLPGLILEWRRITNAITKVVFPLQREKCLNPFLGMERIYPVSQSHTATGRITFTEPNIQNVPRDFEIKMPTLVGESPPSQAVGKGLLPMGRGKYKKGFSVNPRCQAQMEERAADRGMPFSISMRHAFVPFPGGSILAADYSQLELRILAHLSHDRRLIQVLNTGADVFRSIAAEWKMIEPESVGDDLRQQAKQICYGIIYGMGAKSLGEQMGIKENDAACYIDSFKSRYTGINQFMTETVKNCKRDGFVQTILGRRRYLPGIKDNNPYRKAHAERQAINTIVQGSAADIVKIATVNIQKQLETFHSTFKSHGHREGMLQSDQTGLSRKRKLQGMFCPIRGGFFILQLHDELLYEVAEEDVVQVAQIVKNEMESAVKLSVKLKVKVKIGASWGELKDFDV", "assay": "Cy5 fluorescence Polθ-pol DNA synthesis (strand displacement) IC50 assay", "assay_type": "biochemical", "conditions": "Polθ-pol DNA synthesis, Cy5 fluorescence", "how_it_was_run": "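Recombinant human Polθ-pol (aa 1792–2590, 5 nM) extends 60 nM Cy5/quencher primer-template with 50 uM dNTPs in 25 mM Tris pH 7.8, 10 mM MgCl2, 2.5% DMSO at 37 °C. After 18 min, stopped with 20 mM EDTA; Cy5 fluorescence read, 7-point series in triplicate, inhibition from the mean.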"}, "DLD1 BRCA2 -/- cells": {"system": "DLD1 BRCA2 -/- cells", "assay": "Clonogenic assay", "assay_type": "cell-based", "conditions": "for Average number of colonies counted / Normalized colonies (0 micro M = 100): per experiment", "how_it_was_run": "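Cells seeded at low density (300–1000 per well, by plate size and genotype), medium changed every 2 days, colonies grown 10–12 days. Fixed in water:ethanol:acetic acid, stained with 0.5% crystal violet, then counted; IC50 from ≥3 independent experiments, mean ± SEM.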"}, "DLD1 Parental cells": {"system": "DLD1 Parental cells", "assay": "Clonogenic assay", "assay_type": "cell-based", "conditions": "for Normalized colonies (0 micro M = 100): per experiment", "how_it_was_run": "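Colony formation by BRCA-deficient, PALB2-mutant and wild-type cells (300–1000 cells/well) and MEFs (300 cells/well) over 10–12 days, medium changed every 2 days. Colonies fixed, stained with 0.5% crystal violet and counted; IC50 from 3 or more independent experiments.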"}, "LogP": {"assay": "LogP", "assay_type": "physicochemical", "conditions": "method not stated"}},
  "note": "Where “and” joins values, the source holds several entries; their conditions need not be identical. Equal entries are not always repeated.",
  "data": [
    {"smiles": "CN(C(=O)Oc1c(N2CCN(CCO)C2=O)cc(C(F)(F)F)cc1C(F)(F)F)c1ccc(F)cc1", "note": "[RTx-161]", "values": [
      {"measurement": "IC50", "setting": "Polθ-pol", "result": "4.1 nM and 4 to 6 nM"},
      {"measurement": "IC50", "setting": "DLD1 BRCA2 -/- cells; Homo sapiens, DLD-1, read-out: IC50 clonogenic survival", "result": "~1000", "unit": "nM"},
      {"measurement": "Normalized colonies, pooled Average of 3 experiments", "setting": "DLD1 BRCA2 -/- cells; RTX-161 0.185 micro M", "result": 84.318, "unit": "%"},
      {"measurement": "Average number of colonies counted", "setting": "DLD1 BRCA2 -/- cells; RTX-161 0.185 micro M", "result": "67.3333 and 120 and 63.3333"},
      {"measurement": "Normalized colonies (0 micro M = 100)", "setting": "DLD1 BRCA2 -/- cells; RTX-161 0.185 micro M", "result": "74.5387% and 90.4523% and 87.963%"},
      {"measurement": "Normalized colonies, pooled Average of 3 experiments", "setting": "DLD1 BRCA2 -/- cells; RTX-161 0.555 micro M", "result": 72.4221, "unit": "%"},
      {"measurement": "Average number of colonies counted", "setting": "DLD1 BRCA2 -/- cells; RTX-161 0.555 micro M", "result": "58.6667 and 97.6667 and 56.6667"},
      {"measurement": "Normalized colonies (0 micro M = 100)", "setting": "DLD1 BRCA2 -/- cells; RTX-161 0.555 micro M", "result": "64.9446% and 73.6181% and 78.7037%"},
      {"measurement": "Normalized colonies, pooled Average of 3 experiments", "setting": "DLD1 BRCA2 -/- cells; RTX-161 1.67 micro M", "result": 40.9897, "unit": "%"},
      {"measurement": "Average number of colonies counted", "setting": "DLD1 BRCA2 -/- cells; RTX-161 1.67 micro M", "result": "28.3333 and 49.6667 and 39"},
      {"measurement": "Normalized colonies (0 micro M = 100)", "setting": "DLD1 BRCA2 -/- cells; RTX-161 1.67 micro M", "result": "31.3653% and 37.4372% and 54.1667%"},
      {"measurement": "Normalized colonies, pooled Average of 3 experiments", "setting": "DLD1 BRCA2 -/- cells; RTX-161 5 micro M", "result": 19.5991, "unit": "%"},
      {"measurement": "Average number of colonies counted", "setting": "DLD1 BRCA2 -/- cells; RTX-161 5 micro M", "result": "11.6667 and 20.3333 and 22"},
      {"measurement": "Normalized colonies, pooled Average of 3 experiments", "setting": "DLD1 BRCA2 -/- cells; RTX-161 15 micro M", "result": 11.8019, "unit": "%"},
      {"measurement": "selective killing / synthetic lethality in BRCA2-null DLD1 cells", "setting": "DLD1 BRCA2 -/- cells; colony survival, versus BRCA2-WT", "result": "selective killing"},
      {"measurement": "effect in BRCA2-WT cells", "setting": "DLD1 Parental cells; DLD1, colony survival", "result": "little to no effect"},
      {"measurement": "Normalized colonies, pooled Average of 3 experiments", "setting": "DLD1 Parental cells; RTX-161 0.185 micro M", "result": 97.5686, "unit": "%"},
      {"measurement": "Normalized colonies (0 micro M = 100)", "setting": "DLD1 Parental cells; RTX-161 0.185 micro M", "result": "97.878% and 98.6301% and 96.1977%"},
      {"measurement": "Normalized colonies, pooled Average of 3 experiments", "setting": "DLD1 Parental cells; RTX-161 0.555 micro M", "result": 95.8582, "unit": "%"},
      {"measurement": "Normalized colonies (0 micro M = 100)", "setting": "DLD1 Parental cells; RTX-161 0.555 micro M", "result": "95.8175% and 96.5517% and 95.2055%"},
      {"measurement": "Normalized colonies, pooled Average of 3 experiments", "setting": "DLD1 Parental cells; RTX-161 1.67 micro M", "result": 94.2875, "unit": "%"},
      {"measurement": "Normalized colonies (0 micro M = 100)", "setting": "DLD1 Parental cells; RTX-161 1.67 micro M", "result": "93.5361% and 95.4907% and 93.8356%"},
      {"measurement": "Normalized colonies, pooled Average of 3 experiments", "setting": "DLD1 Parental cells; RTX-161 5 micro M", "result": 93.9179, "unit": "%"},
      {"measurement": "Normalized colonies (0 micro M = 100)", "setting": "DLD1 Parental cells; RTX-161 5 micro M", "result": "93.1559% and 96.817% and 91.7808%"},
      {"measurement": "Normalized colonies, pooled Average of 3 experiments", "setting": "DLD1 Parental cells; RTX-161 15 micro M", "result": 93.9599, "unit": "%"},
      {"measurement": "Normalized colonies (0 micro M = 100)", "setting": "DLD1 Parental cells; RTX-161 15 micro M", "result": "90.8745% and 94.4297% and 96.5753%"},
      {"measurement": "logP", "setting": "LogP", "result": 3.6}
    ]}
  ]
}
